Results: article PMC7571068, “Antiproliferative and Pro-Apoptotic Effect of Uvaol in Human Hepatocarcinoma HepG2 Cells by Affecting G0/G1 Cell Cycle Arrest, ROS Production and AKT/PI3K Signaling Pathway” (Molecules, 2020)
In brackets after ≈: the same amount, converted by molar mass.

Assays:
[1] = system: HepG2 line; set-up: method as in PMID 26151733; conditions: HepG2, 22.11 μg/mL, same phase = G0/G1; cited from earlier work
[2] = system: WRL68 cells; experiment: Muse Annexin V & Dead Cell apoptosis assay; type: cell-based, human; conditions: WRL68, staurosporine 1 μg/mL (positive control)
Experimental: (§1) A total of 1.5 × 10^5 cells were seeded per well in 24-well plates for each cell line (quadruplicates for three different populations of each cell line). […] Negative control populations were incubated only with the appropriate culture medium. The samples were analyzed in the Muse^TM Cell Analyzer (Merck-Millipore®, Burlington, MA, USA). Phosphatidylserine (PS) is a phospholipid that is usually found in the inner half of the cytoplasmic membrane, but is outsourced when loss of integrity occurs in the apoptosis process. The method is based on the recognition and binding to the PS exposed by annexin V protein, labeled with a fluorescent substance to detect the interaction and quantify it. We used the Muse^TM Annexin V & Dead Cell kit purchased from Millipore (Billerica, MA, USA), which provides the percentage of viable cells, apoptotic and affected by necrosis.

[3] = system: HepG2 cells; experiment: Muse Annexin V & Dead Cell apoptosis assay; type: cell-based, human; conditions: HepG2, staurosporine 1 μg/mL (positive control)
Experimental: as §1

[4] = system: HepG2 cells; set-up: method as in PMID 26370984; conditions: HepG2, 72 h; cited from earlier work

Compound: CC1(C)CC[C@]2(C(=O)O)CC[C@]3(C)C(=CC[C@@H]4[C@@]5(C)CC[C@H](O)C(C)(C)[C@@H]5CC[C@]43C)[C@@H]2C1 [oleanolic acid]
- cell cycle arrest [1]: arrest in the same phase of the cycle

Compound: CN[C@@H]1C[C@H]2O[C@@](C)([C@@H]1OC)n1c3ccccc3c3c4c(c5c6ccccc6n2c5c31)C(=O)NC4 [staurosporine, reference compound]
- change in number of apoptotic and necrotic cells vs control [2]: equally significant increase
- change in number of viable cells vs control [2]: significant decrease
- change in apoptotic cells vs control [3]: did not lead to an increase in apoptotic cells

Compound: CC1(C)CC[C@]2(C(=O)O)CC[C@]3(C)C(=CC[C@@H]4[C@@]5(C)C[C@@H](O)[C@H](O)C(C)(C)[C@@H]5CC[C@]43C)[C@@H]2C1 [maslinic acid]
- IC50 [4]: 47 µg/mL (≈ 99.4 µM)
